Experimental data taken from patent publication US11173177B2, “Compounds for treatment of lipoprotein metabolism disorders” (Aarhus Universitet, priority 2016, dated 2021).

Assays:
LDLR in HepG2 cells = assay: LDLR levels in HepG2 cells by Western blotting and densitometry; type: cell-based, human; conditions: 0-200 μg/ml, 24 h
Protocol: In the heparin mimetic class of modified polysaccharides compounds dextran sulfate (FIG. 9 A-B) and pentosan (FIG. 9 D-E) were tested in a HepG2 based in vitro cell assay. After overnight incubation LDLR levels were evaluated by Western blotting showing a concentration dependent increase of LDLR upon treatment with dextran sulfate (0-200 μg/ml) with up to 3-fold up regulation of LDLR.
Control cells were incubated without additives (negative control) or 500 μg/ml heparin (positive control). LDLR levels were calculated with respect to the level found in lysate of HepG2 cells incubated without additives.
HepG2 cells were incubated with 0-200 μg/ml of heterogeneously sulfated hexamer or 18-mer oligosaccharides containing on average 1,3 sulfates per disaccharide. After over night incubation cells were harvested and the cellular level of LDLR was analyzed by Western blotting (FIG. 17 A) and quantified by densitometry (FIG. 17 B).

liver LDLR = assay: Liver LDLR levels in mice after intravenous PCSK9 injection (Western blot); type: in vivo; conditions: inhibitor i.v. 60 min prior PCSK9 (10 μg); compound (X) 0.13 mg/kg, Evolocumab 8 mg/kg; PCSK9 without inhibitor: 50% decrease
Protocol: To test the effect of enzymatic removal of heparan sulfate GAGs on PCSK9 activity in vivo 10-12 week-old male BALB6/cJRj mice were infused with heparinase I (30 U) administered through a tail vein catheter 5 min prior injection of PCSK9 (10 μg). In control mice the heparinase injection and/or the PCSK9 injection were replaced with an injection of 0.9% saline. During heparinase infusion, mice were lightly anaesthetized with isoflurane continuously administered through a mask.
Mice (BALB6/cJRj) were subjected to a single intravenous administration (tail vein) of 10 μg human recombinant PCSK9 alone or in combination with heparin (50 U). One hour post injection mice were sacrificed and liver tissues were collected.
Mice (BALB6/cJRj) were subjected to a single intravenous (tail vein) administration of 3.2 μg compound (X) 60 minutes prior injection with PCSK9 (10 μg). PCSK9 induced degradation of liver LDLR was assessed 60 min post PCSK9 injection by Western blotting and quantified by densitometry (FIG. 16 C). Control mice were injected with NaCl or control inhibitor Evolocumab (200 μg), commercially available PCSK9 inhibitory monoclonal antibody (Amgen). LDLR levels were calculated with respect to LDLR level in mice injected with NaCl alone.

PCSK9 [1] = assay: BIACORE interference assay, PCSK9 binding to heparin-albumin sensor chip; design: species or system human; conditions: 100 nM PCSK9 preincubated with 0 nM-10 μM compound; read-out: estimated IC50, inhibition of PCSK9 binding to heparin-albumin sensor chip
Protocol: BIACORE analysis using sensor chips coupled with either albumin (Sigma A4503) or heparin-albumin (Sigma H0403) were used to evaluate the interaction between PCSK9 and heparin. […] An interference assay using BIACORE analysis was implemented to assess the binding between compound (X) and PCSK9. Solutions of 100 nM PCSK9 was incubated with increasing concentrations of compound (X) (0 nM, 10 nM, 100 nM, 1 μM and 10 μM), the solutions were then infused over the sensor chip coupled with heparin-albumin.

PCSK9 [2] = assay: Heparin-sepharose binding assay (free PCSK9 by ELISA); design: species or system human; conditions: 500-200 μg/ml, PCSK9 1 μg/ml, over night 4° C.
Protocol: Compound (X) inhibition of PCSK9 binding to Heparin/Heparan sulfate was tested in a Heparin-sepharose binding assay. Heparin-sepharose beads (2 μl) were incubated with PCSK9 (1 μg/ml) with increasing concentrations of compound (X) (0-500 μg/ml) in a total volume of 150 μl 10 mM NaH2PO4. After over night rotation at 4° C., beads were pelleted and the concentration of non-precipitated PCSK9 (free PCSK9) in supernatant was evaluated by ELISA. The concentration of free PCSK9 in each sample was normalised to the PCSK9 level in a sample without Heparin-sepharose beads (input control). As positive control was included a sample with soluble heparin (5 mg/ml) (FIG. 16 A).
Sucrose octasulfate (FIG. 21A) inhibition of PCSK9 binding to Heparin/Heparan sulfate was tested in a Heparin-sepharose binding assay. Heparin-sepharose beads (2 μl) were incubated with PCSK9 (1 μg/ml) and increasing concentrations of sucrose octasulfate (0-500 μg/ml) in a total volume of 150 μl 10 mM NaH2PO4. After over night rotation at 4° C., beads were pelleted and the concentration of non-precipitated PCSK9 (free PCSK9) in supernatant was evaluated by ELISA). Percent free PCSK9 was calculated with respect to the PCSK9 concentration in a sample without Heparin-sepharose beads (input control) (FIG. 21B).

IC50 (PCSK9 [1]): ~50 nM
inhibition of PCSK9 interaction with Heparin-sepharose (PCSK9 [2]): completely inhibited
SMILES: CC(C)CCC[C@@H](C)[C@H]1CC[C@H]2[C@@H]3CC[C@H]4C[C@@H](O[C@@H]5O[C@H](COS(=O)(=O)[O-])[C@@H](O[C@H]6O[C@H](COS(=O)(=O)[O-])[C@@H](O[C@H]7O[C@H](COS(=O)(=O)[O-])[C@@H](O[C@H]8O[C@H](COS(=O)(=O)[O-])[C@@H](OS(=O)(=O)[O-])[C@H](OS(=O)(=O)[O-])[C@H]8OS(=O)(=O)[O-])[C@H](OS(=O)(=O)[O-])[C@H]7OS(=O)(=O)[O-])[C@H](OS(=O)(=O)[O-])[C@H]6OS(=O)(=O)[O-])[C@H](OS(=O)(=O)[O-])[C@H]5OS(=O)(=O)[O-])CC[C@]4(C)[C@H]3CC[C@]12C.[Na+].[Na+].[Na+].[Na+].[Na+].[Na+].[Na+].[Na+].[Na+].[Na+].[Na+].[Na+].[Na+] [compound (X), 3β-cholestanyl 2,3,4,6-tetra-O-sulfo-α-D-glucopyranosyl-(1→4)-2,3,6-tri-O-sulfo-α-D-glucopyranosyl-(1→4)-2,3,6-tri-O-sulfo-α-Dglucopyranosyl-(1→4)-2,3,6-tri-O-sulfo-β-D-glucopyranoside tridecasodium salt]
LDLR levels with respect to cells incubated without additives (LDLR in HepG2 cells): up to 12 times
LDLR levels, concentration dependence (LDLR in HepG2 cells): concentration dependent increased levels of LDLR
decrease of liver LDLR level after PCSK9 injection (liver LDLR): no decrease was observed
